Patent US9995734B2, “Human T cell line assay for evaluating the immunologic identity of glatiramer acetate preparations” (Mylan Inc., priority 2013, dated 2018)

Test system: Donor 3 GMA T-Cell Lines
Test: ATP proliferation assay (CellTiter Glo), Donor 3 GMA T-cell lines, incl. reactivity to non-canonical GA peptides
Format: cell-based, human

Question: How did the “Proliferation (luminescent ATP assay), Mean” value (“Proliferation” below) (T-cell line 165-B5G, 3 μg/mL antigen, Day 81 of culturing, No Antigen Value 2432) turn out when poly (Glu-Ala-Tyr; 6:3:1) [GAT 631] was run?
Answer: 5536 RLU

Question: And the “Proliferation” value (T-cell line 165-B5G, 5 μg/mL antigen, Day 55 of culturing, No Antigen Value 846)?
Answer: 1511 RLU

Question: And the “Proliferation” value (T-cell line 165-B5G, 10 μg/mL antigen, Day 55 of culturing, No Antigen Value 846)?
Answer: 1645 RLU

Question: What about the “Proliferation” value (T-cell line 165-B5G, 10 μg/mL antigen, Day 81 of culturing, No Antigen Value 2432) of the same substance?
Answer: 4997 RLU

Question: And the “Proliferation” value (T-cell line 165-B5G, 30 μg/mL antigen, Day 81 of culturing, No Antigen Value 2432)?
Answer: 3637 RLU

Question: And the “Proliferation” value (T-cell line 165-C5G, 1.25 μg/mL antigen, autologous B-LCL)?
Answer: 435 RLU

Question: What about the “Proliferation” value (T-cell line 165-C5G, 2.5 μg/mL antigen, autologous B-LCL) of the same substance?
Answer: 465 RLU

Question: And the “Proliferation” value (T-cell line 165-C5G, 5 μg/mL antigen, autologous B-LCL)?
Answer: 504 RLU

Question: What about the “Proliferation” value (T-cell line 165-C5G, 10 μg/mL antigen, autologous B-LCL) of the same substance?
Answer: 423 RLU

Question: And the “Proliferation” value (T-cell line 165-E7G, 1 μg/mL antigen, Day 81 of culturing, No Antigen Value 2145)?
Answer: 4043 RLU

Question: And the “Proliferation” value (T-cell line 165-E7G, 1.25 μg/mL antigen, autologous B-LCL, Day 55)?
Answer: 2629 RLU

Question: And the “Proliferation” value (T-cell line 165-E7G, 2.5 μg/mL antigen, autologous B-LCL, Day 55)?
Answer: 2827 RLU

Question: And the “Proliferation” value (T-cell line 165-E7G, 3 μg/mL antigen, Day 81 of culturing, No Antigen Value 2145)?
Answer: 6457 RLU

Question: What about the “Proliferation” value (T-cell line 165-E7G, 5 μg/mL antigen, autologous B-LCL, Day 55) of the same substance?
Answer: 2950 RLU

Question: What about the “Proliferation” value (T-cell line 165-E7G, 10 μg/mL antigen, Day 81 of culturing, No Antigen Value 2145) of the same substance?
Answer: 5499 RLU

Question: What about the “Proliferation” value (T-cell line 165-E7G, 10 μg/mL antigen, autologous B-LCL, Day 55) of the same substance?
Answer: 3877 RLU

Question: And the “Proliferation” value (T-cell line 165-E7G, 30 μg/mL antigen, Day 81 of culturing, No Antigen Value 2145)?
Answer: 4178 RLU

Question: And the “Proliferation” value (T-cell line 165-E9G, 1 μg/mL antigen, Day 50 of culturing, No Antigen Value 1742)?
Answer: 1482 RLU

Question: What about the “Proliferation” value (T-cell line 165-E9G, 1.25 μg/mL antigen, autologous B-LCL) of the same substance?
Answer: 122 RLU

Question: And the “Proliferation” value (T-cell line 165-E9G, 2.5 μg/mL antigen, autologous B-LCL)?
Answer: 175 RLU

Question: What about the “Proliferation” value (T-cell line 165-E9G, 3 μg/mL antigen, Day 50 of culturing, No Antigen Value 1742) of the same substance?
Answer: 1593 RLU

Question: What about the “Proliferation” value (T-cell line 165-E9G, 5 μg/mL antigen, autologous B-LCL) of the same substance?
Answer: 207 RLU

Question: What about the “Proliferation” value (T-cell line 165-E9G, 10 μg/mL antigen, autologous B-LCL) of the same substance?
Answer: 179 RLU

Question: What about the “Proliferation” value (T-cell line 165-E9G, 30 μg/mL antigen, Day 50 of culturing, No Antigen Value 1742) of the same substance?
Answer: 1382 RLU

Question: What about the “Proliferation” value (T-cell line 165-E9G, 10 μpg/mL antigen, Day 50 of culturing, No Antigen Value 1742) of the same substance?
Answer: 1454 RLU

Question: And the “Proliferation” value (T-cell line 165-F5G, 1.25 μg/mL antigen, autologous B-LCL)?
Answer: 118 RLU

Question: And the “Proliferation” value (T-cell line 165-F5G, 2.5 μg/mL antigen, autologous B-LCL)?
Answer: 160 RLU

Question: What about the “Proliferation” value (T-cell line 165-F5G, 5 μg/mL antigen, autologous B-LCL) of the same substance?
Answer: 106 RLU

Question: And the “Proliferation” value (T-cell line 165-F5G, 10 μg/mL antigen, autologous B-LCL)?
Answer: 130 RLU

Question: What about the “Proliferation” value (T-cell line 165-F10G, 1 μg/mL antigen, Day 50 of culturing, No Antigen Value 3752) of the same substance?
Answer: 3755 RLU

Question: What about the “Proliferation” value (T-cell line 165-F10G, 1.25 μg/mL antigen, autologous B-LCL) of the same substance?
Answer: 948 RLU

Question: And the “Proliferation” value (T-cell line 165-F10G, 2.5 μg/mL antigen, autologous B-LCL)?
Answer: 1080 RLU

Question: And the “Proliferation” value (T-cell line 165-F10G, 3 μg/mL antigen, Day 50 of culturing, No Antigen Value 3752)?
Answer: 3543 RLU

Question: What about the “Proliferation” value (T-cell line 165-F10G, 5 μg/mL antigen, autologous B-LCL) of the same substance?
Answer: 1024 RLU

Question: And the “Proliferation” value (T-cell line 165-F10G, 10 μg/mL antigen, Day 50 of culturing, No Antigen Value 3752)?
Answer: 3702 RLU

Question: And the “Proliferation” value (T-cell line 165-F10G, 10 μg/mL antigen, autologous B-LCL)?
Answer: 944 RLU

Question: And the “Proliferation” value (T-cell line 165-F10G, 30 μg/mL antigen, Day 50 of culturing, No Antigen Value 3752)?
Answer: 3794 RLU

Question: What about the “Proliferation” value (T-cell line 165-H11G, 1 μg/mL antigen, Day 50 of culturing, No Antigen Value 1485) of the same substance?
Answer: 2413 RLU

Question: What about the “Proliferation” value (T-cell line 165-H11G, 1.25 μg/mL antigen, autologous B-LCL) of the same substance?
Answer: 43 RLU

Question: And the “Proliferation” value (T-cell line 165-H11G, 2.5 μg/mL antigen, autologous B-LCL)?
Answer: 290 RLU

Question: And the “Proliferation” value (T-cell line 165-H11G, 3 μg/mL antigen, Day 50 of culturing, No Antigen Value 1485)?
Answer: 2969 RLU

Question: What about the “Proliferation” value (T-cell line 165-H11G, 5 μg/mL antigen, autologous B-LCL) of the same substance?
Answer: 297 RLU

Question: And the “Proliferation” value (T-cell line 165-H11G, 10 μg/mL antigen, Day 50 of culturing, No Antigen Value 1485)?
Answer: 2995 RLU

Question: And the “Proliferation” value (T-cell line 165-H11G, 10 μg/mL antigen, autologous B-LCL)?
Answer: 305 RLU

Question: And the “Proliferation” value (T-cell line 165-H11G, 30 μg/mL antigen, Day 50 of culturing, No Antigen Value 1485)?
Answer: 3115 RLU
